These results are taken from US4894173A, “Divalent ion tolerant aromatic sulfonates” (The Standard Oil Company, priority 1988, dated 1990).

Common to all, as to format: physicochemical
Series [1] is described as follows: 60° C. solubility in deionized (distilled) water and in seawater. Set-up: key to 60° C. Solubility (@ mEq/L), H2O / 60° C. Solubility (@ mEq/L), Seawater: S: completely soluble; P: partially soluble; I: insoluble; T: turbid solution. The method, then:
As mentioned above, surfactants for EOR must be compatible with divalent ion containing brines such as seawater. Solubility tests were carried out in both deionized water and in seawater. The surfactants of this invention (Examples 1-5) were all soluble in seawater. […] A commercial sulfonate (SDBS, Comparative Example 3) was insoluble in seawater. All surfactants were soluble in distilled water.
^ d S = completely soluble P = partially soluble I = insoluble T =

A short description of series [2]: Calcium-ion tolerance (calcium precipitation) test. As to conditions: for Calcium Precipitation (ppm CA^2+): 10 mEq/L surfactant titrated with 5 M CaCl2 until transmittance (600 nm) 80% of initial; for Calcium Precipitation (ppm CA^2+), lower concentration / Calcium Precipitation (ppm CA^2+), higher concentration: 10 mEq/L; for Calcium Precipitation (ppm CA^2+), lower concentration: one component apparently precipitates at the lower calcium ion concentration; for Calcium Precipitation (ppm CA^2+), higher concentration: remainder precipitates at the higher calcium concentration. Here is the method:
Calcium-ion tolerance tests were conducted to quantify the relative solubility of the surfactants in the presence of divalent ions (see Table 2). All of the surfactants of this invention tolerated calcium ion concentrations from 28 to 10,000 times higher than the comparative examples.
^e A 10 mEq/L solution of Surfactant was titrated with 5 M CaCl2
solution until the transmittance of the solution (600 nm) was reduced to
80% of the initial value.
^g One component apparently precipitates out at the lower calcium ion
concentration and the reminder at the higher calcium concentration.

Series [3] can be described thus: Surface tension (lowering of the air/water surface tension), Table 2. As to conditions: 10 mEq/L, deionized water, 22° C. The method, then:
The surface activity - lowering of the air/water surface tension - of the
surfactants was also measured. Surface tensions were measured at a
surfactant concentration of 10 milliequivalents/L in deionized water at
22° C. or a Fisher Autotensiomat (de Nouy ring) apparatus. At this
concentration, all the surfactants should be above their critical micell
^f Of a 10 mEq/L solution of surfactant at 22° C.

Series [4] is described as follows: CMC (critical micelle concentration) from surface tension vs. surfactant concentration curves. The note with it: calcium ion concentration 0. Here is the method: (§1) Surface tensions (in dynes/cm) were measured using the Du Nouy ring method. The reported surface tensions are for 10 meq/L surfactant solutions: which is above the CMC (critical micelle concentration). The CMC's (in meq/L) were determined by examination of surface tension vs. surfactant concentration curves.

Series [5] is described as follows: Surface tension by Du Nouy ring method at varied calcium ion concentration, Table 3. The method, then:
as §1

Series [6] in a line: Divalent ion tolerance as stated in the description. As to conditions: divalent ion concentration tolerated / stable to.
Series [7] can be described thus: Foam formation/stability, simple version of the Ross-Miles foam test. The note with it: 10 meq/L. Here is the method:
Foam tests were conducted using a simple version of the Ross-Miles foam test. The initial (0 min) foam volume for SDBS was assigned a value of 100. All other foam volumes were related to this value.

Series [8] can be described thus: Thermal stability at 90° C.; surfactant activity by two-phase titration. As to conditions: for Surfactant Activity (%): 90° C.; for appearance: aged at 90° C. Here is the method: Surfactant solutions were prepared in distilled water, 1.2M sodium hydroxide, and 1.2M hydrochloric acid. These solutions were aged at 90° C. Samples were withdrawn at regular interval and surfactant activity was determined by two-phase titration.

As to `CCCCCCCCCCCCc1ccc(O)c(S(=O)(=O)O)c1` [Comparative Example 1], in series [1] (24 mEq/L), the “60° C. Solubility (@ mEq/L), H2O” value is “S”. Further, the “solubility in seawater (in words)” value in series [1] is “either insoluble or partially soluble”. Further, the “60° C. Solubility (@ mEq/L), Seawater” value in series [1] (25 mEq/L) is given as “I”. Besides, the “Calcium Precipitation (ppm CA^2+)” value in series [2] is on record as below 80 ppm. Further, the “Surface Tension” value in series [3] came out at 23.4 Dyne/cm.

Consider `CCCCCCCCCc1ccc(O)c(S(=O)(=O)O)c1` [Comparative Example 2], for which the “60° C. Solubility (@ mEq/L), H2O” value in series [1] (30 mEq/L) is on record as “S,T”. Moreover, in series [1], the “solubility in seawater (in words)” value is listed as “either insoluble or partially soluble”. In addition, the “60° C. Solubility (@ mEq/L), Seawater” value in series [1] (28 mEq/L) is listed as “P”. The “Calcium Precipitation (ppm CA^2+)” value in series [2] was 160 ppm. For the same compound, in series [3], the “Surface Tension” value stood at 24.9 Dyne/cm.

As for `CCCCCCC(CO)CCC(C)c1ccc(S(=O)(=O)O)cc1` (stereo not shown) [Example 1], the “60° C. Solubility (@ mEq/L), H2O” value in series [1] (18 mEq/L) was “S”. The “Calcium Precipitation (ppm CA^2+)” value in series [2] came to 2800 ppm. Further, the “Surface Tension” value in series [3] was found to be 25.1 Dyne/cm.

For the compound `CCCCCC(CO)CCC(C)c1ccc(S(=O)(=O)O)cc1` (stereo not shown) [Example 2], the “60° C. Solubility (@ mEq/L), H2O” value in series [1] (35 mEq/L) is “S”. Moreover, the “60° C. Solubility (@ mEq/L), Seawater” value in series [1] (34 mEq/L) is “S”. Further, in series [2], the “Calcium Precipitation (ppm CA^2+), lower concentration” value came out at 355 ppm and the Calcium Precipitation (ppm CA^2+), higher concentration turned out to be 20000 ppm. In addition, the “Surface Tension” value in series [3] stood at 25.6 Dyne/cm.

For the compound `CCCCCCCCC(CO)CCC(C)c1ccc(S(=O)(=O)O)cc1` (stereo not shown) [Example 3], the “60° C. Solubility (@ mEq/L), H2O” value in series [1] (18 mEq/L) is on record as “S”. Moreover, in series [1] (27 mEq/L), the “60° C. Solubility (@ mEq/L), Seawater” value is given as “S”. Besides, in series [2], the “Calcium Precipitation (ppm CA^2+)” value is listed as 40K. In addition, in series [3], the “Surface Tension” value is 26.4 Dyne/cm.

As for `CCCCCCC(CO)Cc1ccc(S(=O)(=O)O)cc1` (stereo not shown) [Example 4], the “60° C. Solubility (@ mEq/L), H2O” value in series [1] (15 mEq/L) was “S”. Moreover, the “60° C. Solubility (@ mEq/L), Seawater” value in series [1] (26 mEq/L) was “S”. In series [2], the “Calcium Precipitation (ppm CA^2+), lower concentration” value came out at 350 ppm and the Calcium Precipitation (ppm CA^2+), higher concentration is 57000 ppm. For the same compound, the “Surface Tension” value in series [3] was determined as 25.2 Dyne/cm.

With `CCCCCCCCC(CO)Cc1ccc(S(=O)(=O)O)cc1` (stereo not shown) [Example 5], in series [1] (15 mEq/L), the “60° C. Solubility (@ mEq/L), H2O” value is given as “S”. Besides, the “60° C. Solubility (@ mEq/L), Seawater” value in series [1] (27 mEq/L) is reported as “S”. In addition, the “Calcium Precipitation (ppm CA^2+)” value in series [2] turned out to be 100K. Also, in series [3], the “Surface Tension” value worked out at 29.3 Dyne/cm.

sodium dodecylbenzenesulfonate [SDBS]: in series [1] (27 mEq/L), the “60° C. Solubility (@ mEq/L), H2O” value was “S”. Further, the “solubility in seawater (in words)” value in series [1] is given as “insoluble”. Moreover, the “60° C. Solubility (@ mEq/L), Seawater” value in series [1] (27 mEq/L) is “I”. Besides, the “Calcium Precipitation (ppm CA^2+)” value in series [2] is given as 90 ppm. Further, the CMC in series [4] is listed as 1 meq/L. Moreover, the “Surface Tension” value in series [3] came to 28.6 Dyne/cm; in series [5] (10 meq/L surfactant, calcium ion concentration 0) it was 29 dynes/cm. The “Surface Tension (observation in words)” value in series [5] (calcium ion concentration 1000 PPM) and in series [5] (calcium ion concentration 10,000 PPM) was “surfactant precipitate” in each case. In addition, the divalent ion tolerance in series [6] was found to be 100 ppm. Further, the “Foam Volume (relative to initial SDBS = 100)” value in series [7] (0 min) was 100; in series [7] (+5 min), 94; in series [7] (+15 min) it was 83; in series [7] (+30 min) it was 77; in series [7] (+45 min) it was 71. Further, the “Surfactant Activity (%)” value turned out to be 100% in series [8] (1.2 M HCl, 0 hr); 92% in series [8] (1.2 M HCl, 305 hr); 59% in series [8] (1.2 M HCl, 500 hr); 41% in series [8] (1.2 M HCl, 720 hr); 1% in series [8] (1.2 M NaOH, 0 hr); 100% in series [8] (distilled water, 0 hr). Besides, the “Surfactant Activity (%)” value was 93% in series [8] (distilled water, 330 hr); 93% in series [8] (distilled water, 525 hr); 93% in series [8] (distilled water, 740 hr). Moreover, the appearance entry in series [8] (1.2 M HCl) was “ppt”; in series [8] (1.2 M NaOH), “ppt”; in series [8] (distilled water), “clear”.
